Experimental findings from US8133880B2, “Purine derivatives and methods of use thereof” (Inotek Pharmaceuticals Corporation, priority 2004, dated 2012) are described below.

Common to all, as to assay type: in vivo
One test concerns Swiss Webster mice. Description: Dextran sodium sulfate-induced colitis. As to conditions: for visual score (1-4) of colon damage: 1 = no damage, 4 = extensive damage, vehicle 2; for Colon Length: twice daily by gavage, seven days with DSS, vehicle 3.97; for MDA / MPO: colon biopsy; for MDA: vehicle 8.7; for MPO: vehicle 209. The procedure:
Colitis was induced in Swiss Webster mice by administration of dextran sodium sulfate (DSS) (5%, dissolved in distilled water, molecular weight 30-40 kDa) ad libitum for a total period of seven days. During this seven-day period, and concomitant with the administration of DSS, the mice were separately administered Compound 54 twice daily by gavage at a total daily dose of 0.1 mg/kg/day, 0.3 mg/kg/day or 1 mg/kg/day. At the end of the seventh day of administration of both DSS and Compound 54, the mice were euthanized and their colon was removed, measured, visually analyzed and colon biopsy samples were analyzed for malondialdehyde (MDA) and myeloperoxidase (MPO) levels.

The test system of test [1] is BALB/c mice. Description: LPS-induced chemokine and cytokine response (serum TNF-α, MIP-1α by ELISA). As to conditions: for Serum MIP-1α mean / Serum TNF-α mean: serum ninety minutes after LPS. The method, then:
Male BALB/c mice were intraperitoneally administered Compound 54 (at a dose of either 0.3 mg/kg or 1.0 mg/kg) over a 30-minute period. Lipopolysaccharide (LPS) was then administered intraperitoneally at a dose of 1 mg/kg. Ninety minutes after LPS administration, serum was collected and the levels of MIP-1α and TNF-α were analyzed using specific ELISA.
Male BALB/c mice were intraperitoneally administered Compound 34 (at a dose of 0.03 mg/kg or 0.1 mg/kg) over a 30 minute period. Lipopolysaccharide (LPS) was then administered intraperitoneally at a dose of 1 mg/kg. Ninety minutes after LPS administration, serum was collected and the levels of MIP-1α and TNF-α were analyzed using specific ELISA.
(In general: ELISA stands for enzyme-linked immunosorbent assay.)

The next test deals with mice. Description: TPA-induced dermatitis of the ear (ear weight, MPO). As to conditions: for Right ear (treated) Mean Weight: 10 μL topical, biopsy six hours after application, normal saline 20.2; for Right ear (treated) MPO: ear biopsy six hours after application, normal saline 18.4; for Difference (right minus left ear weight): normal saline 10.1; for Difference (MPO right minus left ear): normal saline 16.8; for Left ear (untreated) MPO / Left ear (untreated) Mean Weight: left ear DMSO vehicle only. The procedure:
Dermatitis was induced in the right ear of unanesthetized mice via the topical application of 12-O-tetradecanoylphorbol-13-acetate (TPA) (10 μL, 1% in DMSO) on both the inner and outer surfaces of the right ear. The left ear of each mouse had only vehicle (DMSO, 10 μL) topically applied on both the inner and outer surfaces.
Immediately after application of TPA, the mice were topically treated on the inner and outer surfaces of their right ear only with either: (1) Compound 43 (10 μL, 0.1% in normal saline), (2) Compound 43 (10 μL, 0.3% in normal saline), or (3) normal saline (10 μL).
Six hours after the application of Compound 43 or normal saline, the animals were euthanized using CO2 asphyxiation and a ¼ inch biopsy of both the left and right ear was taken and weighed. The biopsy samples were then analyzed for myloperoxidase (MPO) activity as a marker of neutrophil infiltration using standard methods.

For test [2], the system named is BALB/c mice. Description: Asthma-associated inflammation: OVA aerosol exposure and bronchioalveolar lavage. The method, then: Four-week old male, viral-antibody-free BALB/c mice (Jackson Laboratory, Bar Harbor, Me.) were intraperitoneally immunized with 10 μg ovalbumin (“OVA,” Grade III, Sigma Chemical Co., St. Louis, Mo.) and 1 mg alum (diluted from 2% Alhydrogel; Accurate Sci. Corp., Westbury, N.Y.) in 0.5 mL phosphate-buffered saline (“PBS”) on days 0 and 7. Control mice received 1 mg alum in PBS solution on days 0 and 7.
On day 14, both immunized mice and control mice received a single aerosol exposure to 3% OVA (in PBS) for 30 minutes, followed by intraperitoneal administration of Compound 34 (5 μg per mouse in 0.2 mL buffer solution). About 18 hours after treatment, the mice were sacrificed and bronchioalveolar lavage (“BAL”) was performed on their lungs. The fluid obtained from the mice via the BAL procedure was analyzed and the inflammatory cell counts and level of inflammatory mediators in the fluid samples was measured as described in Virag et al., Med. Sci. Monit. 10:BR77-83 (2004).
On day 14, both immunized mice and control mice received a single aerosol exposure to 3% OVA (in PBS) for 30 minutes, followed by intraperitoneal administration of Compound 24 (5 μg per mouse in 0.2 mL buffer solution). About 18 hours after treatment, the mice were sacrificed and bronchioalveolar lavage (“BAL”) was performed on their lungs. The fluid obtained from the mice via the BAL procedure was analyzed and the inflammatory cell counts and level of inflammatory mediators in the fluid samples was measured as described in Virag et al., Med. Sci. Monit. 10:BR77-83 (2004).

Setting [3] is: animals given 0.1% on the right ear.
Setting [4] is: animals given 0.3% on the right ear.
Setting [5] is: 5 μg per mouse i.p., BAL fluid about 18 hours after treatment.

For `CNC(=O)[C@H]1O[C@@H](n2cnc3c(NC)nc(C#N)nc32)[C@H](O)[C@@H]1O` [Compound 54], the colon shortening entry in the test with Swiss Webster mice (0.1, 0.3 or 1 mg/kg/day, compared to animals treated with vehicle) was “protected against colon shortening”. For the same compound, the “levels of MDA and MPO” value in the test on Swiss Webster mice (0.1, 0.3 or 1 mg/kg/day, dose-dependent, compared to animals treated with vehicle) is “lowered”. In addition, the “visual score (1-4) of colon damage” value in the test with Swiss Webster mice (Dose 0.1 mg/ml) was found to be 1.5; in the test on Swiss Webster mice (Dose 0.3 mg/ml) it was 1.2; in the test with Swiss Webster mice (Dose 1 mg/ml), 1.4. The results for the “Colon Length” value in the test on Swiss Webster mice (Dose 0.1 mg/ml), in the test with Swiss Webster mice (Dose 0.3 mg/ml) and in the test on Swiss Webster mice (Dose 1 mg/ml) were 4.95 cm, 5.51 cm and 5.87 cm, respectively. Also, the MDA with Swiss Webster mice (Dose 0.1 mg/ml) came to 7.4 nmol/mg protein; with Swiss Webster mice (Dose 0.3 mg/ml) it was 7.4 nmol/mg protein; in the test on Swiss Webster mice (Dose 1 mg/ml) it was 4.4 nmol/mg protein. For the same compound, the values for the MPO in the test with Swiss Webster mice (Dose 0.1 mg/ml), in the test with Swiss Webster mice (Dose 0.3 mg/ml) and in the test on Swiss Webster mice (Dose 1 mg/ml) were 345 mμ/mg protein, 138 mμ/mg protein and 30 mμ/mg protein, respectively. Also, the “Serum MIP-1α mean” value in the test with BALB/c mice [1] (0.3 mg/kg i.p. before LPS 1 mg/kg i.p., LPS alone 4150) came out at 4298 pg/mL; in the test on BALB/c mice [1] (1.0 mg/kg i.p. before LPS 1 mg/kg i.p., LPS alone 4150) it was 3906 pg/mL. In addition, the “Serum TNF-α mean” value with BALB/c mice [1] (0.3 mg/kg i.p. before LPS 1 mg/kg i.p., LPS alone 9741) was 5733 pg/mL; in the test on BALB/c mice [1] (1.0 mg/kg i.p. before LPS 1 mg/kg i.p., LPS alone 9741), 3727 pg/mL. Also, the “LPS-induced increase in TNF-α and MIP-1α” value in the test on BALB/c mice [1] (0.3 mg/kg or 1.0 mg/kg i.p.) is reported as “dose-dependently reduces”.

Turning to `CCNC(=O)[C@H]1O[C@@H](n2cnc3c(N)nc(N/N=C/[C@H]4CCC=CO4)nc32)[C@H](O)[C@@H]1O` [Compound 43], the “MPO levels in the treated right ears” value in the test with mice (0.1% and 0.3% topical, compared to TPA and normal saline) was “decreased”. Also, the “elevated weight in the right ear caused by the TPA-induced dermatitis” value with mice (0.1% and 0.3% topical, compared to animals receiving normal saline only) is “reduced in a dose-dependent fashion”. Moreover, the figures for the “Right ear (treated) Mean Weight” value with mice (0.1% in normal saline) and in the test with mice (0.3% in normal saline) were 17.7 mg and 13.6 mg, respectively. Moreover, the “Right ear (treated) MPO” value in the test on mice (0.1% topical) is 1.04 ug/sample; in the test on mice (0.3% topical), 3.34 ug/sample. In addition, the “Difference (right minus left ear weight)” value with mice (0.1% topical) came to 5.3 mg; in the test on mice (0.3% topical), 0.1 mg. The “Difference (MPO right minus left ear)” value is on record as 0.67 in the test on mice (0.1% topical) and 1.65 in the test on mice (0.3% topical). The “Left ear (untreated) MPO” value in the test on mice (setting [3]) is 0.37 ug/sample; with mice (setting [4]), 1.69 ug/sample. The “Left ear (untreated) Mean Weight” value with mice (setting [3]) was determined as 12.4 mg; with mice (setting [4]), 13.5 mg.

Turning to `CCNC(=O)[C@H]1O[C@@H](n2cnc3c(N)nc(N/N=C/C4CCC=CO4)nc32)[C@H](O)[C@@H]1O` (mixture of isomers) [Compound 34], the “inflammatory cell infiltration into the BAL fluid, reduction” value in the test with BALB/c mice [2] (5 μg per mouse i.p. after OVA aerosol, BAL about 18 hours after treatment, treated vs. control animals, p<0.01) worked out at 70±19%. Further, in the test on BALB/c mice [2] (setting [5]), the “MIP-1α levels, reduction relative to control” value is 74%; the “TNF-α levels, reduction relative to control” value is on record as 30%; the “white blood cell counts, reduction relative to control” value is 70%. Moreover, the MIP-1α in the test on BALB/c mice [2] (BAL fluid, 5 μg per mouse i.p., untreated mice 58 ± 19) came out at 15 ± 5 pg/mL. The compound also returned a TNF-α with BALB/c mice [2] (BAL fluid, 5 μg per mouse i.p., untreated mice 81 ± 27) of 56 ± 18 pg/mL. For the same compound, the “Serum TNF-α mean” value in the test on BALB/c mice [1] (0.03 mg/kg i.p. before LPS 1 mg/kg i.p., LPS alone 1949) stood at 814 pg/mL. In addition, the “Serum MIP-1α mean” value with BALB/c mice [1] (0.03 mg/kg i.p. before LPS 1 mg/kg i.p., LPS alone 2544) is 1182 pg/mL. In addition, the “LPS-induced increase in TNF-α and MIP-1α” value with BALB/c mice [1] (0.03 mg/kg or 0.1 mg/kg i.p.) is “dose-dependently reduces”. Besides, in the test with BALB/c mice [1] (0.1 mg/kg i.p. before LPS 1 mg/kg i.p., LPS alone 1949), the “Serum TNF-α mean” value was 552 pg/mL. Besides, the “Serum MIP-1α mean” value in the test on BALB/c mice [1] (0.1 mg/kg i.p. before LPS 1 mg/kg i.p., LPS alone 2544) was 981 pg/mL.
